Laboratory results as given in patent US9963431B2, “Use of quinoline derivatives for improving plant yield” (BAYER CROPSCIENCE AG, priority 2013, dated 2018).

Experiments:
[1] = tested on: Triticum aestivum variety “AC Harvest”; test: Growth chamber trial, grain yield after post-emergence spray application; type: in vivo; conditions: for Relative, %: grain yield relative to UTC = 100; for Relative, % / Difference (%) vs. UTC: 10 gai/ha of each active ingredient (mixtures 10 + 10); for Difference (%) vs. UTC: grain yield; for Grain Yield, g/plant: growth chamber, spray at BBCH 56-61, 10 gai/ha of each active ingredient (mixtures 10 + 10)
Corn = test: Field trial, corn grain yield after post emergence application; type: in vivo; conditions: for Relative, %: yield relative to UTC = 100
Description: (§1) The trials have been carried out under natural field conditions (plot trials, 10 sqm, 4 replications) with spray applications using 100-300 l/water per hectare.
(§2) The applications have been done as post emergence treatments straight (alone, 1 application). The growth stage of the crops species at the time of application are reported in the single tables as well as the dose rates of the active ingredients applied.
(§3) The trials have been harvested after crops reached the full maturity. After the harvest, the total weights of grains (kernels/seeds) per plot were taken. Afterwards the seed samples were dried to 14% moisture. The freshweight were calculated to a uniform dry weight of 86% for all harvested plots. The results are reported as means over 4 replications per treatment based on 14% moisture resp. 86% dry weight. The time interval (in days) between applications and harvest time are also described in the single tables.

Spring wheat = test: Field trial, spring wheat grain yield after post emergence application; type: in vivo; conditions: 100 gai/ha; for Relative, %: yield relative to UTC = 100
Description: as §1, §2, §3

[2] = tested on: Oil seed rape (spring; Canola); test: Field trial, oil seed rape grain yield after post emergence application; type: in vivo; conditions: 100 gai/ha
Description: as §1, §2, §3

[3] = tested on: Triiticum aestivum seeds (TRZAS); test: Seed treatment trial, grain yield of plants from treated seeds; type: in vivo, Triticum aestivum
[4] = 20 gai/ha, mid-post, harvest 76 days after application
[5] = 100 gai/ha, GS 33, harvest 84 days after application
[6] = GS 39, harvest 80 days after application
[7] = GS 55, harvest 72 days after application
[8] = grain yield relative to UTC = 100, 1 gai/kg seed
[9] = 250 gai/ha, mid-post, harvest 76 days after application

| SMILES | Relative, % [1] [%] | Difference (%) vs. UTC [1] | Grain Yield, g/plant [1] [g/plant] | Difference (%) vs. UTC ([3]; 1 gai/kg seed) | Grain Yield, g/plant ([3]; 1 gai/kg seed) [g/plant] | Relative, % [3, 8] [%] | other results |
| --- | --- | --- | --- | --- | --- | --- | --- |
| CO/C=C(/C(=O)OC)c1ccccc1Oc1cc(Oc2ccccc2C#N)ncn1 [Azoxystrobin, azoxystrobin] | 115.1 | +15.1% | 1.22 | – | – | – | – |
| CCCCCC(C)OC(=O)COc1ccc(Cl)c2cccnc12 (stereo not drawn) [CQM, 1-methylhexyl (5-chloro-8-quinolinoxy)acetate] | 103.7 | +3.7% | 1.10 | +9.4% | 1.97 | 109.4 | Difference (%) vs. UTC (Corn; [4]): +2.4%; Yield, dt/ha (Corn; [4]): 94 dt/ha; Difference (%) vs. UTC (Corn; [5]): +9.0%; Yield, dt/ha (Corn; 100 gai/ha, post emergence, stem elongation stage (GS 33), harvest 84 days after application): 52.7 dt/ha; Relative, % (Corn; [4]): 102.4%; Relative, % (Corn; [5]): 108.0%; Difference (%) vs. UTC (Spring wheat; [6]): +9.0%; Difference (%) vs. UTC (Spring wheat; [7]): +7.0%; Yield, dt/ha (Spring wheat; late post emergence, ear heading (GS 55), harvest 72 days after application): 40.2 dt/ha; Yield, dt/ha (Spring wheat; post emergence, flag leaf stage (GS 39), harvest 80 days after application): 41.7 dt/ha; Relative, % (Spring wheat; [6]): 109.0%; Relative, % (Spring wheat; [7]): 107.0%; Difference (%) vs. UTC ([2]; GS 60, harvest 49 days after application): +4.0%; Yield, dt/ha ([2]; late post emergence, begin of flowering (GS 60), harvest 49 days after application): 18.4 dt/ha; Relative, % ([2]; yield relative to UTC = 100, GS 60, harvest 49 days after application): 104.0%; Difference (%) vs. UTC ([3]; 0.5 gai/kg seed): +14.4%; Grain Yield, g/plant ([3]; 0.5 gai/kg seed): 2.06 g/plant; Relative, % ([3]; grain yield relative to UTC = 100, 0.5 gai/kg seed): 114.4% |
| CN/C(=N\[N+](=O)[O-])NCc1cnc(Cl)s1 [Clothianidin, clothianidin] | 112.3 | +12.3% | 1.19 | – | – | – | – |
| CC1COC(Cn2cncn2)(c2ccc(Oc3ccc(Cl)cc3)cc2Cl)O1 (stereo not drawn) [Difenoconazole, difenoconazole] | 96.2 | −3.8% | 1.02 | −10% | 1.62 | 90 | – |
| N#Cc1nn(-c2c(Cl)cc(C(F)(F)F)cc2Cl)c(N)c1[S+]([O-])C(F)(F)F (stereo not drawn) [Fipronil, fipronil] | 112.3 | +12.3% | 1.19 | – | – | – | – |
| N#Cc1c[nH]cc1-c1cccc2c1OC(F)(F)O2 [Fludioxonil, fludioxonil] | – | – | – | +14.4% | 2.06 | 114.4 | – |
| OC(Cc1ccccc1Cl)(Cn1nc[nH]c1=S)C1(Cl)CC1 (stereo not drawn) [Prothioconazole, prothioconazole] | 96.2 | −3.8% | 1.02 | – | – | – | – |
| COC(=O)N(OC)c1ccccc1COc1ccn(-c2ccc(Cl)cc2)n1 [Pyraclostrobin, pyraclostrobin] | 117.0 | +17.0% | 1.24 | – | – | – | Difference (%) vs. UTC (Corn; [9]): −15.2%; Yield, dt/ha (Corn; [9]): 78 dt/ha; Relative, % (Corn; [9]): 84.8% |
| CON=C(C(=O)OC)c1ccccc1CON=C(C)c1cccc(C(F)(F)F)c1 [Trifloxystrobin, trifloxystrobin] | 105.7 | +5.7% | 1.12 | – | – | – | – |
| O=[N+]([O-])NC1=NCCN1Cc1ccc(Cl)nc1 [lmidacloprid, imidacloprid] | 107.5 | +7.5% | 1.14 | – | – | – | – |
| COCC(=O)N(c1c(C)cccc1C)C(C)C(=O)OC (stereo not drawn) [metalaxyl] | 107.5 | +7.5% | 1.14 | −15.6% | 1.52 | 84.4 | – |
